Several values for one entry are separate records, joined by “and”; a condition that tells them apart may be missing. Equal entries are not always repeated.
Experiments:
[1] = In vitro dissolution assay (modified USP 4 flow cell), Compound I samples; type: physicochemical; conditions: water and acetonitrile (8:2), 37° C., UV 275 nm, hemihydrate
Protocol: (§1) The equipment used for this procedure is a modified USP 4, the major differences being: 1. low volume cell. 2. stirred cell. 3. retaining filters which are adequate at retaining sub micron material. The total run time is 40 minutes. 2.5 mg of drug (weigh proportionally more formulated material).
(§2) Flow Cell Description: Swinnex filter assemblies obtained from Millipore, having 0.2 micron Cellulose Nitrate membranes. (Millipore, Mass.) as internal filters. The internal volume of the cell is approximately 2 ml. A Small PTFE stirrer customized to fit the Swinnex assembly (Radleys Lab Equipment Halfround Spinvane F37136) is used. The dissolution medium at a flow rate of 5 ml/min is used. The whole set up is placed at a thermostat of 37° C. The drug concentration is measured by passing the eluent through a UV detector having a flow cell dimension of 10 mm. The UV detection is carried out at an appropriate wavelength for the drug.
The experimentation is designed to evaluate drug dissolution rate. As such it is unlikely with poorly soluble drugs, and with water as the dissolution medium, that 100% of the drug will dissolve in the 40 minute duration of the test. To determine the extent of drug solubility over this period one collects all 200 ml of solution that elutes from the dissolution cell.
In vitro dissolution rates of samples 1.1, 1.2 and 1.3 were determined using the protocol described in the experimental section. The dissolution medium was a mixture of water and acetonitrile (8:2), and the wavelength used for drug detection 275 nm.

[2] = In vitro dissolution assay (modified USP 4 flow cell), Compound II samples; type: physicochemical; conditions: 0.1M HCl, 37° C., UV 244 nm
Protocol: as §1, §2
The experimentation is designed to evaluate drug dissolution rate. As such it is unlikely with poorly soluble drugs, and with water as the dissolution medium, that 100% of the drug will dissolve in the 40 minute duration of the test. To determine the extent of drug solubility over this period one collects all 200 ml of solution that elutes from the dissolution cell. Using a conventional UV spectrophotometer, this solution is compared against a reference solution of 2.5 or 4 mg of active agent dissolved in a suitable medium.
In vitro dissolution rates of samples 2.1, 2.2, 2.3, 2.4, 2.5 and 2.6 were determined using the protocol described in the experimental section. The dissolution medium was 0.1M HCl, and the wavelength used for drug detection 244 nm. An unmilled lot of Compound II was used for comparison.

Row | Compound | % Drug Dissolved 10 min ([1]; 10 min) | % Drug Dissolved 20 min ([1]; 20 min) | % Drug Dissolved 30 min ([1]; 30 min) | % Drug Dissolved 40 min ([1]; 40 min) | % Drug Dissolved 10 min ([2]; 10 min) [%] | % Drug Dissolved 20 min ([2]; 20 min) [%] | % Drug Dissolved 30 min ([2]; 30 min) [%] | % Drug Dissolved 40 min ([2]; 40 min) [%]
1 | 6-Acetyl-3,4-dihydro-2,2-dimethyl-trans(+)-4-(4-fluorobenzoylamino)-2H-benzo[b]pyran-3-ol hemihydrate [Compound I] | 17.4% and 12.1% | 24.3% and 18.2% | 29.4% and 23.2% | 33.8% and 27.8% | – | – | – | –
2 | CC[C@H](NC(=O)c1c(O)c(-c2ccccc2)nc2ccccc12)c1ccccc1.Cl [Compound II, 3-Hydroxy-2-phenyl-N-[(1S)-1-phenylpropyl]-4-quinolinecarboxamide monohydrochloride] | – | – | – | – | 3.8 | 6.3 | 8.5 | 10.7

Source: US20060083784A1, “Amorphous pharmaceutical compositions” (SmithKline Beecham Corporation, priority 2002, published 2006)
